Results taken from paper PMC11790914, “Chemogenomics for steroid hormone receptors (NR3)” (Communications Chemistry, 2025).
Where “and” joins values, the source holds several entries; their conditions need not be identical. Equal entries are not always repeated.

Assays:
[1] = tested on: HEK293T cells; assay: Cytotoxicity: necrosis induction (red fluorescent dye for permeable plasma membranes); assay type: cell-based; conditions: 1 µM, 24 h, necrotic cell count normalized to 0.1% DMSO, single replicates;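 note: compounds applied in DMEM high glucose with 0.1% FCS and 0.1% DMSO, necrotic HEK293T cells counted by red staining of cells whose plasma membranes had become permeable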
[2] = tested on: Gal4-VP16; assay type: cell-based; conditions: 1 µM; vs. DMSO ctrl; single replicates n=1-3
[3] = target: T1, ABL1 (Homo sapiens, UniProt P00519); assay: Liability panel screening by DSF: ABL1; assay type: binding; conditions: DSF, 20 µM, n=2; read-out: Mean ΔTM ABL1
T1 construct: made in house
T1 sequence (P00519 whole entry, species assumed): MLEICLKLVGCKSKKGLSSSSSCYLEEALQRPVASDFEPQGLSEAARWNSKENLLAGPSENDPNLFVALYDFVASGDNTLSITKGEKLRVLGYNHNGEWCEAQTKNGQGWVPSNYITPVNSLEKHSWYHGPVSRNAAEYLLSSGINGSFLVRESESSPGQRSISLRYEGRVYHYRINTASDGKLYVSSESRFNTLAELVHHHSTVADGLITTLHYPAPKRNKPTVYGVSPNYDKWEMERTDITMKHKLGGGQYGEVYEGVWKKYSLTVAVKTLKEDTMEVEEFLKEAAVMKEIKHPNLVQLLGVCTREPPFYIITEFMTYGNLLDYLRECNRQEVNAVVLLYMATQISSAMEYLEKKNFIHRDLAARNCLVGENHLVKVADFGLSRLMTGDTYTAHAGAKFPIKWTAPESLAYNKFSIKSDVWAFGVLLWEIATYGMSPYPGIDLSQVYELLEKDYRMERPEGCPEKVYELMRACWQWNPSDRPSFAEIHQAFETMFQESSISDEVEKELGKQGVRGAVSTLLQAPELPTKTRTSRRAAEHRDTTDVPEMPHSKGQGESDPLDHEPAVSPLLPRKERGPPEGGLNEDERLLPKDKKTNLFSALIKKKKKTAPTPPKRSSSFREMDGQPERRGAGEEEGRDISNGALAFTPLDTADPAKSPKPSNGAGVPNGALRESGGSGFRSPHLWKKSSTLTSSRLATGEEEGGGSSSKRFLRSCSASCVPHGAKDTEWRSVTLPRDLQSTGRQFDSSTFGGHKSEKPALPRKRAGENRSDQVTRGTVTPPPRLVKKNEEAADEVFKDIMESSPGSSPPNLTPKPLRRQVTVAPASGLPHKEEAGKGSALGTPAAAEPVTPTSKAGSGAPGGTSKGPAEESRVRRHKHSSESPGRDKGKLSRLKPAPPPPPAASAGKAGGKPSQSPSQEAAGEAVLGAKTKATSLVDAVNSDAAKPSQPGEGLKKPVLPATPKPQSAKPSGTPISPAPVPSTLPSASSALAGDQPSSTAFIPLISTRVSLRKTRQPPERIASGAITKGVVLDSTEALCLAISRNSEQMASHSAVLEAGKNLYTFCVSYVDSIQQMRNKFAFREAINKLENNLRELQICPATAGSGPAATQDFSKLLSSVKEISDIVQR
Procedure, shortened: (§1)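 Recombinant protein at 2 µM in 10 mM HEPES pH 7.5 with 500 mM NaCl was mixed with SYPRO Orange (1:1000) and heated at 3 °C/min up to 85 °C. Tm was taken as the Boltzmann-fit inflection point. Shifts are ∆Tm in K from technical duplicates.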

[4] = target: T2, AURKA (Homo sapiens, UniProt O14965); assay: Liability panel screening by DSF: AURKA; assay type: binding; conditions: DSF, 20 µM, n=2; read-out: Mean ΔTM AURKA
T2 construct: made in house
T2 sequence (O14965 1-403): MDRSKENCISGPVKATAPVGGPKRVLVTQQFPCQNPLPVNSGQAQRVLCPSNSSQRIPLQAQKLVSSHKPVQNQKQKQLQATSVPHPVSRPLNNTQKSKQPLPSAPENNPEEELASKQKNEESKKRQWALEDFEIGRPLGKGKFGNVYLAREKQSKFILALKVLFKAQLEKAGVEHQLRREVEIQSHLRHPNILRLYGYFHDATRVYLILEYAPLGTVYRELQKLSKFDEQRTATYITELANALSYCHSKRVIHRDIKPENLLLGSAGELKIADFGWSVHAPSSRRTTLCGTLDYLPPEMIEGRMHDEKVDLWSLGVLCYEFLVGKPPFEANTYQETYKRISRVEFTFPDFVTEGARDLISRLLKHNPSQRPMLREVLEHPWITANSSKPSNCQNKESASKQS
Procedure, shortened: as §1

[5] = target: T3, CDK2 (Homo sapiens, UniProt P24941); assay: Liability panel screening by DSF: CDK2; assay type: binding; conditions: DSF, 20 µM, n=2; read-out: Mean ΔTM CDK2
T3 construct: made in house
Procedure, shortened: as §1

[6] = target: T4, FGFR3 (Homo sapiens, UniProt P22607); assay: Liability panel screening by DSF: FGFR3; assay type: binding; conditions: DSF, 20 µM, n=2; read-out: Mean ΔTM FGFR3
T4 construct: made in house
T4 sequence (P22607 23-806, species assumed): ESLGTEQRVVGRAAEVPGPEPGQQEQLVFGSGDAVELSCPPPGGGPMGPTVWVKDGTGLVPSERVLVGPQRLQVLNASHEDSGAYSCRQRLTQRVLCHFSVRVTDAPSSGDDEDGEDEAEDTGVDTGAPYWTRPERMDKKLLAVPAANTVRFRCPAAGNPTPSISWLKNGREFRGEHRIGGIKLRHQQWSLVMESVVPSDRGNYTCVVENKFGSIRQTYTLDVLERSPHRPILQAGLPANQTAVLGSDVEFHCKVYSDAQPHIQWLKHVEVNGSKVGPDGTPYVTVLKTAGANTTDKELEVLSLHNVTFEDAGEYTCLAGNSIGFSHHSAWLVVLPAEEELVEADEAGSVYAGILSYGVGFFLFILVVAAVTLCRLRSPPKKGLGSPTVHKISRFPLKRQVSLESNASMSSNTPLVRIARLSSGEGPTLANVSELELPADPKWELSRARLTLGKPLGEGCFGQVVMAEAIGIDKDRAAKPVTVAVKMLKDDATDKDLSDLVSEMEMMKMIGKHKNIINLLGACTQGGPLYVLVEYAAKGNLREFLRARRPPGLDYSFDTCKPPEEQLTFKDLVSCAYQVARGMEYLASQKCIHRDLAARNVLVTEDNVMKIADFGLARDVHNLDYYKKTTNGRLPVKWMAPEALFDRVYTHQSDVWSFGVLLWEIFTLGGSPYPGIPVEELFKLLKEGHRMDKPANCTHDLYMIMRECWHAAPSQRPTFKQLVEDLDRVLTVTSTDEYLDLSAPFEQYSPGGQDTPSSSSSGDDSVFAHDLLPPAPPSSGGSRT
Procedure, shortened: as §1

[7] = target: T5, GSK3B (Homo sapiens, UniProt P49841); assay: Liability panel screening by DSF: GSK3B; assay type: binding; conditions: DSF, 20 µM, n=2; read-out: Mean ΔTM GSK3B
T5 construct: made in house
T5 sequence (P49841 whole entry, species assumed): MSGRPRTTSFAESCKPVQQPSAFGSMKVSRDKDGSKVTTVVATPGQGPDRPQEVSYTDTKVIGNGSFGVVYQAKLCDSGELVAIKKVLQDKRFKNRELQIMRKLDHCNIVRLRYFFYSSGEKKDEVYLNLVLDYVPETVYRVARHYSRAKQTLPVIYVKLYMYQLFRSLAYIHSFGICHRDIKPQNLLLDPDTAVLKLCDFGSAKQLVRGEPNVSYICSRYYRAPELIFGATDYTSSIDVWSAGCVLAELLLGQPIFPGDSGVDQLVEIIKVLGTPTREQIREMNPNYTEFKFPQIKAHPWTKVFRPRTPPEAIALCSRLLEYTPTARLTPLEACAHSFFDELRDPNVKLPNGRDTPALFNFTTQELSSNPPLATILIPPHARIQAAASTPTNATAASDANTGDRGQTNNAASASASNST

[8] = target: T6, BRD4 (Homo sapiens, UniProt O60885); assay: Liability panel screening by DSF: BRD4; assay type: binding; conditions: DSF, 20 µM, n=2; read-out: Mean ΔTM BRD4
T6 construct: This panel comprised ten highly ligandable kinases and bromodomains; made in house
Procedure, shortened: as §1

[9] = target: T7, BRPF1 (Homo sapiens, UniProt P55201); assay: Liability panel screening by DSF: BRPF1; assay type: binding; conditions: DSF, 20 µM, n=2; read-out: Mean ΔTM BRPF1
T7 construct: This panel comprised ten highly ligandable kinases and bromodomains; made in house
T7 sequence (P55201 628-732 limits assumed): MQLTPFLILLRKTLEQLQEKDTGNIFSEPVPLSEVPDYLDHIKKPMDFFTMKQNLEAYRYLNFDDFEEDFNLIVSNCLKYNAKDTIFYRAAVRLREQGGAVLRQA
Procedure, shortened: as §1

[10] = target: T8, CSNK1D (Homo sapiens, UniProt P48730); assay: Liability panel screening by DSF: CSNK1D; assay type: binding; conditions: DSF, 20 µM, n=2; read-out: Mean ΔTM CSNK1D
T8 construct: made in house
T8 sequence (P48730 whole entry, species assumed): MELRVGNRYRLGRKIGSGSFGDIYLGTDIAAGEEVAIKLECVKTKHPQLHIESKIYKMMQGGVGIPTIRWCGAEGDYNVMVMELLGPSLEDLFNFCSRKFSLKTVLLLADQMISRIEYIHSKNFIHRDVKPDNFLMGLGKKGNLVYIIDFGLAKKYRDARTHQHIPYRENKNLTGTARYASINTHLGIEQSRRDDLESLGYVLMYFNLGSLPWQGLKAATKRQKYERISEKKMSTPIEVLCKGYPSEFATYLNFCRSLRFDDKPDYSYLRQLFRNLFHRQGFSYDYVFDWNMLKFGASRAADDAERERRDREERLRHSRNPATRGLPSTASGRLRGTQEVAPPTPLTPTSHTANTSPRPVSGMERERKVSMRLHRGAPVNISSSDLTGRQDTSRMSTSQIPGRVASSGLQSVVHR
Procedure, shortened: as §1

[11] = target: T9, MAPK1 (Homo sapiens, UniProt P28482); assay: Liability panel screening by DSF: MAPK1; assay type: binding; conditions: DSF, 20 µM, n=2; read-out: Mean ΔTM MAPK1
T9 construct: made in house
T9 sequence (P28482 whole entry, species assumed): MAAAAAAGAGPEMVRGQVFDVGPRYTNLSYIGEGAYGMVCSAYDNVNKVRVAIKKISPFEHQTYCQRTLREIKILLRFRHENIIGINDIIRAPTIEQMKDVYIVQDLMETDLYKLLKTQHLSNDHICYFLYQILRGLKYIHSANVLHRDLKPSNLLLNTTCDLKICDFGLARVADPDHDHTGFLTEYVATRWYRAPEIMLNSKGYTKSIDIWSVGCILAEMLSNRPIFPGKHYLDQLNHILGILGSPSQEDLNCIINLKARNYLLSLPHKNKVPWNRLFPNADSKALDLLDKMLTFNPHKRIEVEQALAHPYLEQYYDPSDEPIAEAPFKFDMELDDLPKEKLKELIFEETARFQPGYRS
Procedure, shortened: as §1

[12] = target: T10, TRIM24 (Homo sapiens, UniProt O15164); assay: Liability panel screening by DSF: TRIM24; assay type: binding; conditions: DSF, 20 µM, n=2; read-out: Mean ΔTM TRIM24
T10 construct: This panel comprised ten highly ligandable kinases and bromodomains; made in house
T10 sequence (O15164 899-1004 limits assumed): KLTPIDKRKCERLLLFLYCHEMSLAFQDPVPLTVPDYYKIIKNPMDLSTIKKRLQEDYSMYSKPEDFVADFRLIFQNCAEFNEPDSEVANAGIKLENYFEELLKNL
Procedure, shortened: as §1

[13] = tested on: NF-κB activity in HEK293 NF-κB reporter cells; assay: NF-kB activity assay (GFP reporter, ionomycin/PMA); assay type: cell-based; conditions: for Mean NFκB response: n=3
Procedure, shortened: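 Reporter readout: GFP-expressing cells normalized to confluence, imaged every 90 min across 24 h after ionomycin (100 ng/mL)/PMA (10 ng/mL) stimulation of HEK293 cells pre-treated 4 h with compound (0.1% DMSO); triplicate independent experiments.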

[14] = tested on: ATF6 activity in Hela ATF6 reporter cells; assay: Endoplasmic reticulum stress assay (ATF6 Renilla luciferase reporter, tunicamycin); assay type: cell-based
Procedure, shortened: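 ER stress was induced by 100 ng/mL tunicamycin added 4 h after compound (0.1% DMSO) to HeLa ATF6 reporter cells. After 18 h more, Renilla luciferase signal was read and expressed relative to DMSO control, n=5 biological replicates.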

[15] = tested on: HEK293T cells; assay: Cytotoxicity: metabolic activity (WST-8 / CCK-8 assay); conditions: 1 µM; HEK293T, 24 h; WST-8; normalized to 0.1% DMSO; single replicates
[16] = tested on: HEK293T cells; assay: Cytotoxicity: growth-rate (change in confluence over 24 h); conditions: 1 µM, normalized to 0.1% DMSO control, single replicates (n=1...)
[17] = tested on: HEK293T cells; assay: Cytotoxicity: apoptosis induction (caspase-3/7 DEVD fluorogenic DNA dye); conditions: 1 µM; HEK293T, 24 h; apoptotic cell count normalized to 0.1% DMSO; single replicates

Row | Compound | Necrosis induction [NI] [1] | ΔTm at 20 µM [3] | ΔTm at 20 µM [4] | ΔTm at 20 µM [5] | ΔTm at 20 µM [6] | ΔTm at 20 µM [7] | ΔTm at 20 µM [8] | ΔTm at 20 µM [9] | ΔTm at 20 µM [10] | ΔTm at 20 µM [11] | ΔTm at 20 µM [12] | Mean NFκB response ([13]; 1 µM, 1,5 h) | Mean NFκB response ([13]; 1 µM, 4,5 h) | Mean NFκB response ([13]; 1 µM, 7,5 h) | Mean NFκB response ([13]; 1 µM, 10,5 h) | Mean NFκB response ([13]; 1 µM, 13,5 h) | Mean NFκB response ([13]; 1 µM, 16,6 h) | Mean NFκB response ([13]; 1 µM, 19,5 h) | Mean NFκB response ([13]; 1 µM, 22,5 h) | Mean NFκB response ([13]; 1 µM, 3 h) | further results
1 | CC(=O)O[C@]1(C(C)=O)CC[C@H]2[C@@H]3CCC4=CC(=O)CCC4=C3[C@@H](c3ccc(N(C)C)cc3)C[C@@]21C [Ulipristal acetate] | 1.05 and 1.11 and 0.95 and 0.92 | 0.29 °C | -1.14 °C | -0.32 °C | -0.057 °C | -0.83 °C | -2.72 °C | -2.65 °C | 0.22 °C | -0.0546 °C | -1.79 °C | 2644.31 GFP+-cells/confluence ∙ 1000 | 3036.67 GFP+-cells/confluence ∙ 1000 | 6043.33 GFP+-cells/confluence ∙ 1000 | 16570.00 GFP+-cells/confluence ∙ 1000 | 25096.67 GFP+-cells/confluence ∙ 1000 | 31636.67 GFP+-cells/confluence ∙ 1000 | 36313.33 GFP+-cells/confluence ∙ 1000 | 39910.00 GFP+-cells/confluence ∙ 1000 | 2710.00 GFP+-cells/confluence ∙ 1000 | VP16 control [fold reporter gene activity] [2]: 1.05 fold reporter gene activity and 1.09 fold reporter gene activity and 1.04 fold reporter gene activity; Mean NFκB response ([13]; 1 µM, 6 h): 3846.67 GFP+-cells/confluence ∙ 1000; Mean NFκB response ([13]; 1 µM, 9 h): 10723.33 GFP+-cells/confluence ∙ 1000; Mean NFκB response ([13]; 1 µM, 12 h): 21213.33 GFP+-cells/confluence ∙ 1000; Mean NFκB response ([13]; 1 µM, 15 h): 28280.00 GFP+-cells/confluence ∙ 1000; Mean NFκB response ([13]; 1 µM, 18 h): 34176.67 GFP+-cells/confluence ∙ 1000; Mean NFκB response ([13]; 1 µM, 21 h): 38276.67 GFP+-cells/confluence ∙ 1000; Mean NFκB response ([13]; 1 µM, 24 h): 41050.00 GFP+-cells/confluence ∙ 1000; activity at 1 µM ([14]; Homo sapiens, HeLa, 1 µM, single replicates n=1 to n=5, read-out: ER stress [rel. ATF6 activity]): 102%; Metabolic activity [MA] [15]: 1.04 and 0.97 and 0.99 (2×) and 1.03 (2×) and 0.96 and 1.08; Growth rate [GR] [16]: 0.78 and 1.52 and 1.08 and 1.00 (2×) and 1.04 and 0.73 and 0.60 and 1.80 and 3.99; Apoptosis induction [AI] [17]: 0.98 (2×) and 0.83 and 1.37 and 1.27 and 0.92
2 | N#CC(Cc1ccc(O)cc1)c1ccc(O)cc1 (stereo not shown) [Diarylpropionitrile] | 1.10 and 0.85 and 0.90 and 1.44 | 0.17 °C | 0.16 °C | 0.74 °C | 0.51 °C | 0.0529 °C | 0.26 °C | -1.46 °C | 0.0747 °C | 0.0328 °C | 0.03 °C | 3165.75 GFP+-cells/confluence ∙ 1000 | 4108.72 GFP+-cells/confluence ∙ 1000 | 9286.59 GFP+-cells/confluence ∙ 1000 | 18231.50 GFP+-cells/confluence ∙ 1000 | 25916.56 GFP+-cells/confluence ∙ 1000 | 31500.03 GFP+-cells/confluence ∙ 1000 | 35046.16 GFP+-cells/confluence ∙ 1000 | 38151.13 GFP+-cells/confluence ∙ 1000 | 3363.39 GFP+-cells/confluence ∙ 1000 | Mean NFκB response ([13]; 1 µM, 6 h): 5664.74 GFP+-cells/confluence ∙ 1000; Mean NFκB response ([13]; 1 µM, 9 h): 14005.24 GFP+-cells/confluence ∙ 1000; Mean NFκB response ([13]; 1 µM, 12 h): 22519.63 GFP+-cells/confluence ∙ 1000; Mean NFκB response ([13]; 1 µM, 15 h): 29221.60 GFP+-cells/confluence ∙ 1000; Mean NFκB response ([13]; 1 µM, 18 h): 33392.36 GFP+-cells/confluence ∙ 1000; Mean NFκB response ([13]; 1 µM, 21 h): 36386.11 GFP+-cells/confluence ∙ 1000; Mean NFκB response ([13]; 1 µM, 24 h): 39415.66 GFP+-cells/confluence ∙ 1000; NF-κB activity (inflammatory response to ionomycin/PMA) ([13]; HEK293 NF-κB reporter cells, compounds at recommended concentrations, imaged over 24 h, n = 3): no impact on NF-κB activity; ATF6 activity (tunicamycin-induced endoplasmic reticulum stress) ([14]; Hela ATF6 reporter cells, tunicamycin 100 ng/mL, 18 h, compounds at recommended concentrations, n = 5): failed to reduce ATF6 activity; Metabolic activity [MA] [15]: 1.05 and 0.99 and 0.90 and 1.01 and 1.03 and 0.93 and 1.00 and 1.10; Growth rate [GR] [16]: 0.79 (2×) and 0.00 (2×) and 0.84 and 1.00 and 0.91 and 0.88 and 1.61 and 5.04; Apoptosis induction [AI] [17]: 0.70 and 1.46 and 0.65 and 1.11 and 1.49 and 0.58
